ChEMBL document CHEMBL4825743, “Novel Substituted Heterocyclic and Heteroaryl Compounds for Treating Huntington's Disease” (ACS Med Chem Lett, 2021)

Molecular target: Huntingtin (Homo sapiens, UniProt P42858)
Assay: Inhibition of Huntingtin protein (unknown origin) incubated for overnight in presence of MW1/MAB2166 monoclonal antibody by ELISA-based MSD electrochemiluminescence assay

Chain of Huntingtin (P42858 whole entry): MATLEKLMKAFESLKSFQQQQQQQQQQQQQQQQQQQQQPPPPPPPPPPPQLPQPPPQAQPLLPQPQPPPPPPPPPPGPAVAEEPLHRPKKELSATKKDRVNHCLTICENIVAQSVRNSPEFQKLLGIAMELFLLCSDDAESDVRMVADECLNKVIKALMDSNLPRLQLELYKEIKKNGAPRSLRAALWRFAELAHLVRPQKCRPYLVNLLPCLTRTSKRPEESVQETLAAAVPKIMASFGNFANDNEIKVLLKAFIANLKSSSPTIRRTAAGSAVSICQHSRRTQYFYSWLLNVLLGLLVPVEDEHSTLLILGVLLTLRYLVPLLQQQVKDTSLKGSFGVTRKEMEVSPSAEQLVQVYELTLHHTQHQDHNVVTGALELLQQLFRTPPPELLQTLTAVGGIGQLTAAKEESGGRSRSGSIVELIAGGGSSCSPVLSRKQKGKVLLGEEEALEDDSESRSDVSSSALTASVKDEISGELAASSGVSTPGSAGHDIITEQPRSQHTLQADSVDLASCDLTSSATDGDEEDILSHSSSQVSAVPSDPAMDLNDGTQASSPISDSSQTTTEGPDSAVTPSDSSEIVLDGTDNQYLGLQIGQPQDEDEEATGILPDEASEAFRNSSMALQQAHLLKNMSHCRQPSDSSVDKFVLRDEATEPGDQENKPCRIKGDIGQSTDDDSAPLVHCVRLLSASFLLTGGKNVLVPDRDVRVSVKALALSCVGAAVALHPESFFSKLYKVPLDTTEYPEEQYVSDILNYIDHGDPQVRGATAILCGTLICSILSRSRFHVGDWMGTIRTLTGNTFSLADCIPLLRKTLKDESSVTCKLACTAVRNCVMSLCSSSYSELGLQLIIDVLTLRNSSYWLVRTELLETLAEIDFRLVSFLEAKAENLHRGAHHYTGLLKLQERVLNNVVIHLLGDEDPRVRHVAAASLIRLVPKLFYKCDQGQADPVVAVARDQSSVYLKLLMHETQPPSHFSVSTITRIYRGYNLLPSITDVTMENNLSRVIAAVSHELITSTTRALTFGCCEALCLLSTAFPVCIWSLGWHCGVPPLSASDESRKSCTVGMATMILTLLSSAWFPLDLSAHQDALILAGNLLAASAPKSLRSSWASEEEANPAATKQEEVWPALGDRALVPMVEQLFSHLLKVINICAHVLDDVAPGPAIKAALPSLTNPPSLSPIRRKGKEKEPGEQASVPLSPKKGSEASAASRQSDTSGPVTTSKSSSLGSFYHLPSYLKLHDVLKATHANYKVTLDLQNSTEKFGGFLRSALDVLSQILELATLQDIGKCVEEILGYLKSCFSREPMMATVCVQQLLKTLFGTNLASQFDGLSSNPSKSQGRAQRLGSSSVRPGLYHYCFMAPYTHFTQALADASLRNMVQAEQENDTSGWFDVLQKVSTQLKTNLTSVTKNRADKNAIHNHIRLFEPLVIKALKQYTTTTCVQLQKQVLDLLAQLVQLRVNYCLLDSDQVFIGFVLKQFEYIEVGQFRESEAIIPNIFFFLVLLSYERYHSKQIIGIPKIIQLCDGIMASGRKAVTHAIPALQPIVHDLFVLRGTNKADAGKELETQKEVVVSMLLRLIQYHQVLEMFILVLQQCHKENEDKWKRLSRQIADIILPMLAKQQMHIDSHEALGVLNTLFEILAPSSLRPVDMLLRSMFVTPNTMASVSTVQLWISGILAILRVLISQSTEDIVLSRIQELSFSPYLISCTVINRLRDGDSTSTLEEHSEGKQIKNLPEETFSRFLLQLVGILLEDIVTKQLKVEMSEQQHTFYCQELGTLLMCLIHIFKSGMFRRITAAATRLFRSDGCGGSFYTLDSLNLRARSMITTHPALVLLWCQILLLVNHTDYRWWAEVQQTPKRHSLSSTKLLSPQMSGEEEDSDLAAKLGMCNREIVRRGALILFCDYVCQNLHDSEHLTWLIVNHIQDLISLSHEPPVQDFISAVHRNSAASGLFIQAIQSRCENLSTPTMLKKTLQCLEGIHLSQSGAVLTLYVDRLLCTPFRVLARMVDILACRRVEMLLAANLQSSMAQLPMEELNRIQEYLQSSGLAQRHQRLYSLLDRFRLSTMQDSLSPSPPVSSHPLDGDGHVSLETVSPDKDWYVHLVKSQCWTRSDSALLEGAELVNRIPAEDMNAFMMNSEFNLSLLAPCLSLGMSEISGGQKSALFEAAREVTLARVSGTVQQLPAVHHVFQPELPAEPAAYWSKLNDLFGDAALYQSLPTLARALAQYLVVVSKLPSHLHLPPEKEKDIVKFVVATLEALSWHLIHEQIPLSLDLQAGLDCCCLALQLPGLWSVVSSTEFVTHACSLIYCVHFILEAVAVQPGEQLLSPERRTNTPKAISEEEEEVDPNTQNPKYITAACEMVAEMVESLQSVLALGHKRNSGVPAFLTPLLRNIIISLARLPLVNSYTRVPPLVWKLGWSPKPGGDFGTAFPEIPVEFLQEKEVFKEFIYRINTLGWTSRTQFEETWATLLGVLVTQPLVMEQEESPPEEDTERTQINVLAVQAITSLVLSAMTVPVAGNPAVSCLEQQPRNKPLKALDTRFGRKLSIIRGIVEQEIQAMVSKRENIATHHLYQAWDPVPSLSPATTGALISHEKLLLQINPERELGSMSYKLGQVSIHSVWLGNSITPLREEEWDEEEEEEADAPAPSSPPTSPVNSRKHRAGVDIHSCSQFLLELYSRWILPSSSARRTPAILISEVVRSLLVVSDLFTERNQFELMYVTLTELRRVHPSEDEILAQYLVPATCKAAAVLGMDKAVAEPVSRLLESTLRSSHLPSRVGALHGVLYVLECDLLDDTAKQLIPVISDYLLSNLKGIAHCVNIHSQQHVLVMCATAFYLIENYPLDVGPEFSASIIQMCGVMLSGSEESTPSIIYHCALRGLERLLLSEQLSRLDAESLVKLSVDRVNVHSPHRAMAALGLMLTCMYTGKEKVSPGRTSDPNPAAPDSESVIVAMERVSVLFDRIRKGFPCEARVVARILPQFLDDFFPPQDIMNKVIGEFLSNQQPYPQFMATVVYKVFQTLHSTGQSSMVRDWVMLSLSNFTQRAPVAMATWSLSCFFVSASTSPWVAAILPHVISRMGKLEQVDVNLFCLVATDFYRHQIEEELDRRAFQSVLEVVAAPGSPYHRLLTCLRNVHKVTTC

IC50, ≤ 100 nM:
CC1(C)CC(n2nnc3cc(-c4ccc(-c5ncco5)cc4O)nnc32)CC(C)(C)N1
COc1ncnc(-c2ccc(-c3cc4nnn(C5CC(C)(C)NC(C)(C)C5)c4nn3)c(O)c2)n1
CC1(C)C=C(c2csc3cc(-c4ccc(-c5cn[nH]c5)cc4O)nnc23)CC(C)(C)N1
CC1(C)CC(n2nnc3cc(-c4ccc(-c5nncs5)cc4O)nnc32)CC(C)(C)N1
CC1(C)CC(n2nnc3cc(-c4ccc(-c5nccs5)cc4O)nnc32)CC(C)(C)N1
CC1(C)CC(n2nnc3cc(-c4ccc(-n5nccn5)cc4O)nnc32)CC(C)(C)N1 [VOTOPLAM]
